According to BindingDB's records for doi:10.1016/j.bmcl.2015.03.051 (Mayo Clinic, 2015):

Columns and labels:
[1] = molecular target: T1, Cholecystokinin receptor type A (Homo sapiens, UniProt P32238); experiment: Activity at CCK1R (unknown origin) expressed in CHO cells assessed as CCK EC50 measured as intracellular calcium responses at 1000 nM (Rvb = 7 to 14 pM)
T1 sequence (P32238 whole entry): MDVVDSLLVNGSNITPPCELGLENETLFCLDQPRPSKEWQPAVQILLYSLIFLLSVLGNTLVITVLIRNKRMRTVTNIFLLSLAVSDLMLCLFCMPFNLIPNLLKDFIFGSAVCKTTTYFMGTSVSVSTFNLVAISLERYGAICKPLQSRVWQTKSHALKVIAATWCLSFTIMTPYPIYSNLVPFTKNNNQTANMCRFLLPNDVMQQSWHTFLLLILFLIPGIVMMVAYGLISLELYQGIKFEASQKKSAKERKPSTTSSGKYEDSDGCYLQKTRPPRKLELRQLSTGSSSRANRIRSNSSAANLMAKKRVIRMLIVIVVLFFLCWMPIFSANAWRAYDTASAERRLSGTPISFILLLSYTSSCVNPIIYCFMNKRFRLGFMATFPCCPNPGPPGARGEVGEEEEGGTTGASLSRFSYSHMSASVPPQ

[2] = molecular target: T1, Cholecystokinin receptor type A; experiment: Activity at CCK1R (unknown origin) expressed in CHO cells assessed as CCK EC50 measured as intracellular calcium responses at 100 nM (Rvb = 7 to 14 pM)
[3] = molecular target: T1, Cholecystokinin receptor type A
[4] = molecular target: T1, Cholecystokinin receptor type A; remark: listed apart in the source

Row | Compound | EC50 [1] [nM] | EC50 [2] [nM] | IC50 [3] [nM] | IC50 [4] [nM]
1 | O=C(CN1C(=O)C(NC(=O)Nc2ccccc2)C(=O)N(c2ccccc2)c2ccccc21)Nc1ccccc1 (stereo unspecified) | 0.039 | 0.014 | – | –
2 | COc1ccc(N(C)C(=O)CN2C(=O)C(NC(=O)Nc3ccccc3)C(=O)N(c3ccccc3)c3ccccc32)cc1 (stereo unspecified) [2-[2,4-Dioxo-5-phenyl-3-(3-phenyl-ureido)-2,3,4,5-tetrahydro-benzo[b][1,4]diazepin-1-yl]-N-(4-methoxy-phenyl)-N-methyl-acetamide] | 0.120 | 0.051 | 25 | 14
